Results as given in patent US10730826B2, “Ketone inhibitors of lysine gingipain” (CORTEXYME, INC., priority 2016, dated 2020).

Key:
[1] = biological target: Cathepsin K (Homo sapiens (Human), UniProt P43235); assay: Cathepsin K inhibition assay; format: biochemical; conditions: Table 4; read-out: IC50 (nM) CatK
Method: (§1) The capacities of compounds of the present invention to inhibit the activity of cathepsins B, H, K, L, and S were measured in similar assays. Boc-Leu-Arg-Arg-AMC (20 μM) in sodium acetate buffer (50 mM, pH 5.5) containing DTT (1 mM) and EDTA (2 mM) was used for the Cathepsin B assay. L-Arg-AMC (20 μM) in sodium acetate buffer (50 mM, pH 5.5) containing DTT (1 mM) and EDTA (2 mM) was used for the Cathepsin H assay. Z-Phe-Arg-AMC (10 μM) in HEPES buffer (50 mM, pH 7.4) containing DTT (2.5 mM) and EDTA (1 mM) was used for the Cathepsin K assay. Z-Phe-Arg-AMC (20 μM) in sodium acetate buffer (50 mM, pH 5.5) containing DTT (1 mM) and EDTA (2 mM) was used for the Cathepsin L assay. Z-Leu-Arg-AMC (10 μM) in sodium acetate buffer (25 mM, pH 4.5) containing DTT (2.5 mM) and NaCl (50 mM) was used for the Cathepsin S assay. The capacities of the compounds to inhibit the activity of cathepsins F, V, and Z were also measured.
(§2) Further assays to measure the inhibitory activity of compounds of the present invention against Kgp and cathepsins B, H, K, L, and S were conducted as described in Example 66. The capacities of the compounds to inhibit the activity of cathepsins F, V, and Z were also measured.

[2] = biological target: cathepsin V (Homo sapiens (Human), UniProt O60911); assay: Cathepsin V inhibition assay; format: biochemical; conditions: Table 4; read-out: IC50 (nM) CatV
Method: as §1, §2

[3] = biological target: cathepsin Z (Homo sapiens (Human), UniProt Q9UBR2); assay: Cathepsin Z inhibition assay; format: biochemical; conditions: Table 4; read-out: IC50 (nM) CatZ
Method: as §1, §2

[4] = tested on: P. gingivalis W83; assay: Mouse periodontitis model, alveolar bone loss; format: in vivo, BALB/C mice; conditions: week 5-10
Method: (§3) At the beginning of the study, eight week old BALB/C female mice received antibiotic in drinking water (sulfamethoxazolum 0.87 mg/mL, trimethoprimum 0.17 mg/mL) for 10 days to reduce microbiome protection from experiment infection. Experimental periodontitis was induced by ligature placement followed by multiple exposures to P. gingivalis. During the ligature procedure mice were anesthetized with an intraperitoneal injection of ketamine (200 mg/kg) and xylazine (10 mg/kg), and eyes were lubricated with ointment (Puralube Vet; Pharmaderm, Melville, N.Y.). Next, a 5-0 silk ligature (Roboz Surgical Instrument Co.) was tied around the upper maxillary left and right second molar. Sutures were applied and tied gently to prevent damage to the periodontal tissue.
(§4) Mice (n=8-10/arm) were infected for 6 weeks every other day. For infection, […]. of bacteria solution were applied topically to the buccal surface of the maxillae. For preparation of the bacteria, P. gingivalis W83 (ATCC, Rockville, Md.) was streaked on Tryptic Soy Broth (TSB) agar plates (5% sheep blood, supplemented with 0.5 mg/mL L-cysteine, 5 μg/mL hemin, and 0.5 μg/mL vitamin K) and grown under anaerobic conditions at 37° C. for 5-7 days. Samples were then inoculated in TSB with hemin, vitamin K and L-cysteine (TSB-HKC) until mid-log phase (OD600=0.5-0.7). Bacteria were washed in PBS and prepared at final concentration of 1×10^10 cells/mL in PBS+2% methylcellulose (CMC).
(§5) Vehicle-treated animals received PBS only. At 5 weeks, a subgroup of animals (n=16) were euthanized to gather baseline measurements before the start of treatment. After 10 weeks, mice were euthanized and the brain, serum, and maxillary tissues were harvested and frozen in liquid nitrogen.
Bone loss in the maxillae was measured ex vivo blinded using OsiriX MD software (PixmeoSARL, Bernex, Switzerland). […] The distance between the cementoenamel junction (CEJ) and the alveolar bone crest (ABC) was measured from the CEJ to a reference line on the ABC which was placed perpendicular to the superficial root one each side of the second molar. […]

[5] = tested on: P. gingivalis W83; assay: Mouse periodontitis model, P. gingivalis DNA in brain tissue (qPCR); format: in vivo, BALB/C mice; conditions: between week 5 and 10
Method: as §3, §4, §5
DNA was extracted from brain tissue using the DNeasyBLOOD & TISSUE KIT (Qiagen, Germany) according to manufacturer's protocol. […] The number of copies of the P. gingivalis genome was calculated by matching Cq values with a standard curve prepared from serial dilutions of cultured P. gingivalis W83 (WT). […]

[6] = tested on: P. gingivalis W83; assay: Mouse periodontitis model, GAD67 positive interneurons in the dentate gyrus; format: in vivo, BALB/C mice; conditions: 10 weeks, infected treated mice vs mock-infected
Method: as §3
as §4, with “Samples were then inoculated in TSB with hemin, vitamin K and L-cysteine (TSB-HKC) until mid-log phase (OD600=0.5-0.7). Bacteria were washed in PBS and prepared at final concentration of 1×10^10 cells/mL in PBS+2% methylcellulose (CMC).” left out
Quantification of GAD67 positive interneurons was performed with CellSens 1.5. […] The number of cells on every 40th section through the hippocampus was counted. […]

[7] = tested on: P. gingivalis; assay: Related studies: brain abeta42 and neuroinflammation; format: in vivo

Chain of cathepsin V (O60911 114-334): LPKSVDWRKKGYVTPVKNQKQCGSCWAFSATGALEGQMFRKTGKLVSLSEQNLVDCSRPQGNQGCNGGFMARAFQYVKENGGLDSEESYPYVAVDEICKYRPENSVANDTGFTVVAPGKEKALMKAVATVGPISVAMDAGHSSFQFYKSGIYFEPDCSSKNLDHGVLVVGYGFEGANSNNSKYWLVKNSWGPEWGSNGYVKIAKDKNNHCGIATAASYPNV
Chain of cathepsin Z (Q9UBR2 62-303): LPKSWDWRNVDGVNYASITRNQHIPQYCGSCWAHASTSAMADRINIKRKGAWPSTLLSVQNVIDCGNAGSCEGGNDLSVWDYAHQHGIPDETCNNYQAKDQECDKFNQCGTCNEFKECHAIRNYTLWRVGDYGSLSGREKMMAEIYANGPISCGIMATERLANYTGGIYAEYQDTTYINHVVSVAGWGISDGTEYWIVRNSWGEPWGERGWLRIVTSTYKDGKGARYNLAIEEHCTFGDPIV
Chain of Cathepsin K (P43235 115-329, species assumed): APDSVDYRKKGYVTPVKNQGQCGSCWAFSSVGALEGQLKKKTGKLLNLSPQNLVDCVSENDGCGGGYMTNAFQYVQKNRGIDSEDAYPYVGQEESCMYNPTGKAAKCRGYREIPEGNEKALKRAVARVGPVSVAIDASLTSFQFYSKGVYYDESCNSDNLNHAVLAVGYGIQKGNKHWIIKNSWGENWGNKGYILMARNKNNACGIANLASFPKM

## NCCCC[C@H](NC(=O)C1CCCC1)C(=O)COc1c(F)ccc(F)c1F [Compound 1, (S)—N-(7-amino-2-oxo-1-(2,3,6-trifluorophenoxy)heptan-3-yl)cyclopentanecarboxamide]
[1]
  IC50: 117 nM
[2]
  IC50: > 10000 nM
[3]
  IC50: > 10000 nM
[4]; 3 mg/kg oral b.i.d.
  alveolar bone loss: trended to improvement but did not result in significant improvement
[4]; 10 mg/kg oral b.i.d.
  alveolar bone loss: improved
[4]; 30 mg/kg oral b.i.d.
  alveolar bone loss: improved
[5]; 3 mg/kg
  reduction in P. gingivalis DNA copy number in brain tissue: ~50%
[5]; 10 mg/kg
  reduction in P. gingivalis DNA copy number in brain tissue: ~50%
[5]; 30 mg/kg
  reduction in P. gingivalis DNA copy number in brain tissue: ~80%
[6]
  GAD67 positive interneurons in the dentate gyrus: at the same level as the GAD67^+ cells in the mock-infected mice
[7]
  induction of brain abeta42: reduce induction
  neuroinflammation: reduce induction
